Reference: the SangsterLogP compilation

Assay: method code SF-AS, from PMID: 594121
Conditions: not given

Compound	logP
Cc1cccc(NC(=O)CN2CCCCC2)c1	2.97
O=C(CN1CCCCC1)Nc1ccccc1Br	2.94
COc1cccc(NC(=O)CN2CCCCC2)c1	2.71
O=C(CN1CCCCC1)Nc1cccc(Cl)c1	3.45
CCOc1ccccc1NC(=O)CN1CCCCC1	3.04
O=C(CN1CCCCC1)Nc1cccc(F)c1	2.85
O=C(CN1CCCCC1)Nc1ccc(C(F)(F)F)cc1	3.06
O=C(CN1CCCCC1)Nc1ccc(F)cc1	2.7
O=C(CN1CCCCC1)Nc1cccc(C(F)(F)F)c1	3.12
COc1ccccc1NC(=O)CN1CCCCC1	2.85
O=C(CN1CCCCC1)Nc1ccccc1F	2.16
O=C(CN1CCCCC1)Nc1cccc([N+](=O)[O-])c1	2.59
O=C(CN1CCCCC1)Nc1ccccc1[N+](=O)[O-]	2.75
O=C(CN1CCCCC1)Nc1ccccc1C(F)(F)F	3.09
Cc1ccc(NC(=O)CN2CCCCC2)cc1	2.95
O=C(CN1CCCCC1)Nc1ccccc1Cl	2.76
CCOc1cccc(NC(=O)CN2CCCCC2)c1	3.17
Cc1ccccc1NC(=O)CN1CCCCC1	2.26

Same assay, conditions: pH 7.4

Compound	logD
O=C(CN1CCCCC1)Nc1ccc(I)cc1	3.21
O=C(CN1CCCCC1)Nc1cccc(I)c1	3.23
O=C(CN1CCCCC1)Nc1ccccc1	2.41
O=C(CN1CCCCC1)Nc1cccc(Br)c1	2.93
CCOc1ccc(NC(=O)CN2CCCCC2)cc1	2.82
O=C(CN1CCCCC1)Nc1ccc([N+](=O)[O-])cc1	2.25
O=C(CN1CCCCC1)Nc1ccc(Br)cc1	2.88
